32 molecules from patent US9844550B2, “Phtalazinone derivatives and manufacturing process thereof” (ILDONG PHARM CO., LTD., priority 2013, dated 2017) can be followed below.

This assay deals with MDA-MB-436 breast cancer cell line. The experiment in a line: Cell viability assay (MDA-MB-436). The assay is classed as cell-based. The settings on record: Homo sapiens, 144 h; MDA-MB-436 cells, treated 6 days. As to the method: 2. Cell Viability Assay (MDA-MB-436)
Cell viability assay was performed by using MDA-MB-436 cell line to measure cytotoxicity of compounds in the present invention. MDA-MB-436 breast cancer cell line was seeded into 96-well plates at 37° C. under 5% CO2 atmosphere using DMEM/F12 (Gibco) containing 10% FBS (Hyclone). After 24 hr incubation, cells were treated with the invented compounds at various concentrations for 6 days. The medium was changed every 3 day. 6 days later, A fluorescence reagent was used to determine the IC50 values.
One may read the IC50 as the point on the concentration scale where inhibition reaches its midpoint. Read a low IC50 as inhibition by little substance. As for `O=C(c1cc(Cc2n[nH]c(=O)c3ccccc23)ccc1F)N1CC(NC2(CO)CC2)C1` [Compound I-84, 4-(4-fluoro-3-(3-((1-(hydroxymethyl)cyclopropyl)amino)azetidine-1-carbonyl)benzyl)phthalazin-1(2H)-one], the IC50 fell in the range of 50 to 300 nM. `CC1(NC2CN(C(=O)c3cc(Cc4n[nH]c(=O)c5ccccc45)ccc3F)C2)CC1` [Compound I-85, 4-(4-fluoro-3-(3-((1-methylcyclopropyl)amino)azetidine-1-carbonyl)benzyl)phthalazin-1(2H)-one]: the IC50 is not above 5 nM.

The molecule `C[C@@H](NC1CN(C(=O)c2cc(Cc3n[nH]c(=O)c4ccccc34)ccc2F)C1)C(C)(C)C` [Compound I-86, (R)-4-(3-(3-((3,3-dimethylbutan-2-yl)amino)azetidine-1-carbonyl)-4-fluorobenzyl)phthalazin-1(2H)-one] had a half-maximal inhibitory concentration (IC50) of 5 to 50 nM. For the molecule `C[C@H](NC1CN(C(=O)c2cc(Cc3n[nH]c(=O)c4ccccc34)ccc2F)C1)C(C)(C)C` [Compound I-87, (S)-4-(3-(3-((3,3-dimethylbutan-2-yl)amino)azetidine-1-carbonyl)-4-fluorobenzyl)phthalazin-1(2H)-one], the half-inhibitory concentration (IC50) was in the range of 300 to 1000 nM. As for `CC(C)[C@@H](C)NC1CN(C(=O)c2cc(Cc3n[nH]c(=O)c4ccccc34)ccc2F)C1` [Compound I-88, (R)-4-(4-fluoro-3-(3-((3-methylbutan-2-yl)amino)azetidine-1-carbonyl)benzyl)phthalazin-1(2H)-one], the figure is not above 5 nM; as for `CC(C)[C@H](C)NC1CN(C(=O)c2cc(Cc3n[nH]c(=O)c4ccccc34)ccc2F)C1` [Compound I-89, (S)-4-(4-fluoro-3-(3-((3-methylbutan-2-yl)amino)azetidine-1-carbonyl)benzyl)phthalazin-1(2H)-one], 5 to 50 nM; as for `COCC1(NC2CN(C(=O)c3cc(Cc4n[nH]c(=O)c5ccccc45)ccc3F)C2)CC1` [Compound I-90, 4-(4-fluoro-3-(3-((1-(methoxymethyl)cyclopropyl)amino)azetidine-1-carbonyl)benzyl)phthalazin-1(2H)-one], 50 to 300 nM. Turning to `C#CCCNC1CN(C(=O)c2cc(Cc3n[nH]c(=O)c4ccccc34)ccc2F)C1` [Compound I-91, 4-(3-(3-(but-3-yn-1-ylamino)azetidine-1-carbonyl)-4-fluorobenzyl)phthalazin-1(2H)-one], the IC50 lay within 50 to 300 nM. The molecule `C=C(C)CNC1CN(C(=O)c2cc(Cc3n[nH]c(=O)c4ccccc34)ccc2F)C1` [Compound I-92, 4-(4-fluoro-3-(3-((2-methylallyl)amino)azetidine-1-carbonyl)benzyl)phthalazin-1(2H)-one] displayed a half-inhibitory concentration (IC50) of 5 to 50 nM.

`CC(C)(CO)CNC1CN(C(=O)c2cc(Cc3n[nH]c(=O)c4ccccc34)ccc2F)C1` [Compound I-93, 4-(4-fluoro-3-(3-((3-hydroxy-2,2-dimethylpropyl)amino)azetidine-1-carbonyl)benzyl)phthalazin-1(2H)-one]: the IC50 fell in the range of 50 to 300 nM.

In turn, `N#CC1(CNC2CN(C(=O)c3cc(Cc4n[nH]c(=O)c5ccccc45)ccc3F)C2)CC1` [Compound I-94, 1-(((1-(2-fluoro-5-((4-oxo-3,4-dihydrophthalazin-1-yl)methyl)benzoyl)azetidin-3-yl)amino)methyl)cyclopropanecarbonitrile] gave a concentration for half-maximal inhibition (IC50) of 300 to 1000 nM.

The molecule `O=C(c1cc(Cc2n[nH]c(=O)c3ccccc23)ccc1F)N1CC(NCC(F)(F)F)C1` [Compound I-95, 4-(4-fluoro-3-(3-((2,2,2-trifluoroethyl)amino)azetidine-1-carbonyl)benzyl)phthalazin-1(2H)-one] returned a half-maximal inhibitory concentration (IC50) of 50 to 300 nM.

Turning to `O=C(c1cc(Cc2n[nH]c(=O)c3ccccc23)ccc1F)N1CC(N[C@@H]2CCNC2)C1` [Compound I-96, (R)-4-(4-fluoro-3-(3-(pyrrolidin-3-ylamino)azetidine-1-carbonyl)benzyl)phthalazin-1(2H)-one], the IC50 was in the range of 300 to 1000 nM.

The molecule `N#CC1(NC2CN(C(=O)c3cc(Cc4n[nH]c(=O)c5ccccc45)ccc3F)C2)CCCC1` [Compound I-98, 1-((1-(2-fluoro-5-((4-oxo-3,4-dihydrophthalazin-1-yl)methyl)benzoyl)azetidin-3-yl)amino)cyclopentanecarbonitrile] displayed a 50% inhibitory concentration (IC50) of 300 to 1000 nM. As for `CCC(C#N)NC1CN(C(=O)c2cc(Cc3n[nH]c(=O)c4ccccc34)ccc2F)C1` (centres unmarked) [Compound I-101, 2-((1-(2-fluoro-5-((4-oxo-3,4-dihydrophthalazin-1-yl)methyl)benzoyl)azetidin-3-yl)amino)butanenitrile], the figure is 300 to 1000 nM. As for `CC(C)C(C#N)NC1CN(C(=O)c2cc(Cc3n[nH]c(=O)c4ccccc34)ccc2F)C1` (centres unmarked) [Compound I-102, 2-((1-(2-fluoro-5-((4-oxo-3,4-dihydrophthalazin-1-yl)methyl)benzoyl)azetidin-3-yl)amino)-3-methylbutanenitrile], the figure is 300 to 1000 nM; as for `N#CC(NC1CN(C(=O)c2cc(Cc3n[nH]c(=O)c4ccccc34)ccc2F)C1)C1CC1` (centres unmarked) [Compound I-103, 2-cyclopropyl-2-((1-(2-fluoro-5-((4-oxo-3,4-dihydrophthalazin-1-yl)methyl)benzoyl)azetidin-3-yl)amino)acetonitrile], 300 to 1000 nM. As for `O=C(c1cc(Cc2n[nH]c(=O)c3ccccc23)ccc1F)N1CC(NC2(C(F)(F)F)CCC2)C1` [Compound I-104, 4-(4-fluoro-3-(3-((1-(trifluoromethyl)cyclobutyl)amino)azetidine-1-carbonyl)benzyl)phthalazin-1(2H)-one], the figure is 300 to 1000 nM; as for `O=C(c1cc(Cc2n[nH]c(=O)c3ccccc23)ccc1F)N1CC(Nc2ncccn2)C1` [Compound I-109, 4-(4-fluoro-3-(3-(pyrimidin-2-ylamino)azetidine-1-carbonyl)benzyl)phthalazin-1(2H)-one], 300 to 1000 nM; as for `O=C(c1cc(Cc2n[nH]c(=O)c3ccccc23)ccc1F)N1CC[C@H](Nc2ncccn2)C1` [Compound I-110, (S)-4-(4-fluoro-3-(3-(pyrimidin-2-ylamino)pyrrolidine-1-carbonyl)benzyl)phthalazin-1(2H)-one], 300 to 1000 nM.

`CN(c1ccc(Cl)nn1)[C@H]1CCN(C(=O)c2cc(Cc3n[nH]c(=O)c4ccccc34)ccc2F)C1` [Compound I-111, (S)-4-(3-(3-((6-chloropyridazin-3-yl)(methyl)amino)pyrrolidine-1-carbonyl)-4-fluorobenzyl)phthalazin-1(2H)-one] returned a half-inhibitory concentration (IC50) of 300 to 1000 nM. Under `O=C(c1cc(Cc2n[nH]c(=O)c3ccccc23)ccc1F)N1CC[C@H](Nc2ccc(Cl)nn2)C1` [Compound I-112, (S)-4-(3-(3-((6-chloropyridazin-3-yl)amino)pyrrolidine-1-carbonyl)-4-fluorobenzyl)phthalazin-1(2H)-one] stands 300 to 1000 nM.

As to `CN(c1cccnn1)[C@H]1CCN(C(=O)c2cc(Cc3n[nH]c(=O)c4ccccc34)ccc2F)C1` [Compound I-113, (S)-4-(4-fluoro-3-(3-(methyl(pyridazin-3-yl)amino)pyrrolidine-1-carbonyl)benzyl)phthalazin-1(2H)-one], the concentration for half-maximal inhibition (IC50) lay in the range of 300 to 1000 nM.

Molecule `CN(c1ccc(Cl)nn1)C1CN(C(=O)c2cc(Cc3n[nH]c(=O)c4ccccc34)ccc2F)C1` [Compound I-115, 4-(3-(3-((6-chloropyridazin-3-yl)(methyl)amino)azetidine-1-carbonyl)-4-fluorobenzyl)phthalazin-1(2H)-one] displayed an IC50 of 300 to 1000 nM.

In the case of `O=C(c1cc(Cc2n[nH]c(=O)c3ccccc23)ccc1F)N1CC(N(c2ncccn2)C2CCC2)C1` [Compound I-116, 4-(3-(3-(cyclobutyl(pyrimidin-2-yl)amino)azetidine-1-carbonyl)-4-fluorobenzyl)phthalazin-1(2H)-one], the IC50 is 300 to 1000 nM.

`O=C(c1cc(Cc2n[nH]c(=O)c3ccccc23)ccc1F)N1CC[C@@H](Nc2ccc(Cl)nn2)C1` [Compound I-118, (R)-4-(3-(3-((6-chloropyridazin-3-yl)amino)pyrrolidine-1-carbonyl)-4-fluorobenzyl)phthalazin-1(2H)-one] had an IC50 of 300 to 1000 nM. In turn, `CCN(c1ncccn1)[C@@H]1CCN(C(=O)c2cc(Cc3n[nH]c(=O)c4ccccc34)ccc2F)C1` [Compound I-121, (R)-4-(3-(3-(ethyl(pyrimidin-2-yl)amino)pyrrolidine-1-carbonyl)-4-fluorobenzyl)phthalazin-1(2H)-one] showed an IC50 of 300 to 1000 nM.

`O=C(c1cc(Cc2n[nH]c(=O)c3ccccc23)ccc1F)N1CC[C@@H](Nc2nccs2)C1` [Compound I-124, (R)-4-(4-fluoro-3-(3-(thiazol-2-ylamino)pyrrolidine-1-carbonyl)benzyl)phthalazin-1(2H)-one] came in with a concentration for half-maximal inhibition (IC50) of 50 to 300 nM. Under `C#Cc1cnc(N[C@@H]2CCN(C(=O)c3cc(Cc4n[nH]c(=O)c5ccccc45)ccc3F)C2)nc1` [Compound I-125, (R)-4-(3-(3-((5-ethynylpyrimidin-2-yl)amino)pyrrolidine-1-carbonyl)-4-fluorobenzyl)phthalazin-1(2H)-one] stands not above 5 nM; under `N#Cc1cnc(N[C@@H]2CCN(C(=O)c3cc(Cc4n[nH]c(=O)c5ccccc45)ccc3F)C2)nc1` [Compound I-126, (R)-2-((1-(2-fluoro-5-((4-oxo-3,4-dihydrophthalazin-1-yl)methyl)benzoyl)pyrrolidin-3-yl)amino)pyrimidine-5-carbonitrile], 5 to 50 nM; under `O=C(c1cc(Cc2n[nH]c(=O)c3ccccc23)ccc1F)N1CC[C@@H](Nc2ccccn2)C1` [Compound I-128, (R)-4-(4-fluoro-3-(3-(pyridin-2-ylamino)pyrrolidine-1-carbonyl)benzyl)phthalazin-1(2H)-one], 5 to 50 nM. As for `CN(C)C(=O)c1cccnc1N[C@@H]1CCN(C(=O)c2cc(Cc3n[nH]c(=O)c4ccccc34)ccc2F)C1` [Compound I-129, (R)-2-((1-(2-fluoro-5-((4-oxo-3,4-dihydrophthalazin-1-yl)methyl)benzoyl)pyrrolidin-3-yl)amino)-N,N-dimethylnicotinamide], the figure is 300 to 1000 nM.
